Experimental findings from PMC12799219, “In vitro and in vivo studies on the activity and selectivity of butoconazole in experimental infection by Trypanosoma cruzi” (Memórias do Instituto Oswaldo Cruz, 2026) are described below.

Series [1] concerns T. cruzi intracellular forms (Tulahuen strain). In words: In vitro activity on intracellular forms of T. cruzi in L929 cells (β-galactosidase/CPRG). The series is classed as cell-based, Trypanosoma cruzi. The settings on record: for EC90: read-out: Activity against T. cruzi intracellular forms EC90. The protocol:
In vitro activity on intracellular forms of T. cruzi - L929 cells previously seeded in 96-well plates (4 x 10^3 cells/well) were infected (ratio of 10 parasites:1 host cell) for 2 h with trypomastigote forms (Tulahuen strain transfected with the β-galactosidase gene, DTU VI).

Series [2] can be described thus: Cytotoxicity assay on L929 fibroblasts (AlamarBlue). The series is classed as cell-based. The following applies: mouse. The protocol: Mammalian cell cultures - L929 fibroblast lineage were cultured in Roswell Park Memorial Institute 1640 medium without phenol red (RPMI - Sigma-Aldrich, St. Louis, MO, USA), supplemented with 10% foetal bovine serum (FBS - Cultilab - SP - Brazil) and 2 mM glutamine (Sigma-Aldrich, St. Louis, MO, USA) with pH 7.2 - 7.4, as previously reported.[21] H9C2, cardiomyoblast cultures, were maintained in Dulbecco’s Modified Eagle’s Medium (DMEM) high glucose (4500 mg/L) medium supplemented (Sigma-Aldrich, St. Louis, MO, USA) with 10% FBS (Cultilab - SP -Brazil), 2 mM glutamine (Sigma-Aldrich, St. Louis, MO, USA) and 100 μg/mL penicillin/streptomycin (Sigma-Aldrich, St. Louis, MO, USA).[22] Both cell cultures maintained at 37 °C under an atmosphere of 5% CO2, with weekly dissociation protocol using 0.01% trypsin.
Cytotoxicity assay - The toxicity of the compounds was evaluated on two mammalian cell lines (L929 and H9C2), as reported.[21] The cells were seeded in 96-well plates (4 x 10^3 cells/well - for L929; 25x10^3 cells/well - for H9C2) and incubated at 37 °C and 5% CO2. The L929 cultures were kept under treatment for 96 and 168 h with a serial dilution (1:2) of the compounds (up to 400 μM). After the treatment periods, the AlamarBlue® reagent (Thermo Fisher Scientific Inc) was added and incubated for 24 h. The H9C2 cultures were also treated in serial dilution up to 200 μM for 24 h. PrestoBlue® reagent (Thermo Fisher Scientific Inc) was added to the cultures and incubated for 3 h. All plates were analysed in the spectrophotometer SpectraMaxM3 (570 and 600 nm) and LC50 values (concentration capable of inducing loss of viability in 50% of the cells) determined.[21] All assays were done at least twice, in triplicates.
In general terms: The colour change of resazurin is a common sign of viable cells or microbes.

Series [3] concerns T. cruzi intracellular forms (Tulahuen strain) in L929 cell lines. In words: Washout assay in L929 cultures infected with T. cruzi. The series is classed as cell-based, Trypanosoma cruzi. The following applies: 10 µM for 168 h, then 168 h drug-free. As to the method:
Washout assays in L929 cultures infected with T. cruzi - L929 cultures were infected with Tulahuen strain as above described and incubated or not for 168 h with 10 µM of BZ and BTZ (37 °C/5% CO2). RPMI culture medium (containing the tested compounds) was replaced every 72 h. Then, the cultures were rinsed with 0.1M PBS, and the drug-free culture medium added for another 168 h, replacing it every 72 h. The number of parasites released into the supernatant and of intracellular forms were analysed by light microscopy and by spectrophotometry (570 nm) after adding CPRG, respectively. The results were expressed as the percentage of reduction in parasite growth compared to untreated cells. BZ was used as a positive treatment control.[25] The data results from two independent experiments done in at least triplicate.

The test system is the same in series [4]. In words: Drug combination (fixed-ratio, FICI) on intracellular forms of T. cruzi. It is filed as cell-based, Trypanosoma cruzi. More on the design: Drug concentration (EC50 in fixed-ratio series): unit not given here. As to the method: Drug combination on intracellular forms of T. cruzi - L929 were seeded in 96-well plates (4 x 10^3 cells/well) and infected with T. cruzi (Tulahuen strain). Predetermined EC50 values were used to determine the top concentrations of the test compounds under fixed ratios ensuring that EC50 fell in the midpoint of a seven-point two-fold dilution series. The fixed ratios were 5:0, 4:1, 3:2, 2:3, 1:4 and 0:5.[24] ^, [25] According to Odds (2003), the Fractional Inhibitory Concentration Indexes (FICI) was calculated by the ratio of the EC50 values of each ratio of the combinations/EC50 of each compound alone. Finally, the sum of the FICIs (ƩFICI) is calculated to classify the interaction nature of the combinations.[26] ΣFICI ≤ 0.5 = Synergism; ΣFICI between 0.5 and 4 = additive (No interaction); ΣFICI > 4 = antagonism. At least two independent experiments were performed in triplicate.

In series [5] the test system is T. cruzi satDNA. In words: In vivo efficacy by qPCR (T. cruzi satDNA) in blood and heart. Further details: species or system Swiss male mice. The following applies: for qPCR on blood samples, parasite DNA amplification: first trial, surviving mice: BZ 25 mg/kg/day, BTZ 45.61 mg/kg/day; for qPCR on blood samples, animals that amplified parasite DNA: second trial, higher doses: BZ 100, BTZ 182.44 mg/kg/day. As to the method:
In vivo efficacy assessments by qPCR evaluations - At the end point, the animals were weighed; euthanised and submitted to cardiac puncture. 500 μL of fresh blood was collected and added to 1 mL of guanidine. The DNA was extracted from 300 μL of guanidine-EDTA blood, using the kit High Pure PCR Template Preparation (Roche diagnostics, Mannhein, Germany), according to the manufacturer's instructions. At the last step of the protocol, DNA was eluted in 100 μL of elution buffer. Also, cardiac tissues were collected, weighed and fragmented using a scalpel, 200 μL of Tissue Lysis Buffer was added and samples immediately placed in Styrofoam with dry ice. Blood and heart tissues were stored in the freezer at […] until analysis by qPCR. Heart tissues were homogenised using a Tissue Homogeneizer (Qiagen). DNA was extracted using the kit High Pure PCR Template Preparation (Roche diagnostics, Mannhein, Germany), according to the manufacturer's instructions for tissue samples. qPCR was done using a TaqMan multiplex assay, targeting T. cruzi […] and mouse GAPDH, as an endogenous control, and to normalise the parasite load. To obtain standard curves, serial dilutions of the DNA were prepared in appropriate plates for the assay. After normalising the results obtained on the samples, the parasite load was expressed as parasite equivalents/mL when evaluated in blood, or parasite equivalents/mg when in mouse tissue. In all trials, positive and negative controls were also tested in parallel.

[6] abbreviates: Trypanosoma cruzi, TULAHUEN, L929, 96 h, read-out: Activity against T. cruzi intracellular forms EC50, Tulahuen strain in L929, 96 h.

Values joined by “and” are separate entries in the source; they are usually repeats but may differ in a detail not shown here. Identical values can stand only once. Like-named read-outs stand apart in the source and are kept apart here. Bounds are passed on as bounds.

In general, EC90 refers to the concentration at which the effect reaches the 90% level. As a reminder, the CC50 is the concentration at which the toxic effect on the cells reaches its halfway point. In the case of `Clc1ccc(CCC(Cn2ccnc2)Sc2c(Cl)cccc2Cl)cc1` (stereo not drawn) [BTZ, butoconazole], the EC50 in series [1] (Trypanosoma cruzi, TULAHUEN, L929, 96 h, Tulahuen strain in L929, 96 h, read-out: Activity against T. cruzi intracellular forms pEC50 (converted)) was 0.0708 µM; in series [1] (setting [6]), 0.075 µM; in series [1] (Tulahuen strain in L929, 96 h, read-out: Activity against T. cruzi intracellular forms EC50), 0.07 ± 0.02 µM. Further, the 90% effect concentration (EC90) in series [1] (Trypanosoma cruzi, Tulahuen strain in L929, 96 h) is 3.88 ± 0.45 µM. Moreover, the CC50 at 96 h in series [2] was found to be 23.9 ± 1.1 µM. This compound came in with a CC50 at 168 h in series [2] of 17.5 ± 3.24 µM. The EC50 at 168 h in series [2] is 24 µM. Moreover, the “Washout: reduction in the number of intracellular forms” value in series [3] was > 96% and 96 - 98% and 96 ± 4%. Further, in series [3], the “Washout: reduction in the number of released parasites” value stood at 100 ± 0%. The FICI in series [4] (proportion BTZ:BZ 0:5) came to 0; in series [4] (proportion BTZ:BZ 1:4) it was 0.26; in series [4] (proportion BTZ:BZ 2:3), 0.37; in series [4] (proportion BTZ:BZ 3:2), 0.20; in series [4] (proportion BTZ:BZ 4:1), 0.76; in series [4] (proportion BTZ:BZ 5:0) it was 1. Also, the “Drug concentration (EC50 in fixed-ratio series)” value in series [4] (proportion BTZ:BZ 1:4) was determined as 0.008; in series [4] (proportion BTZ:BZ 2:3) it was 0.012; in series [4] (proportion BTZ:BZ 3:2), 0.006; in series [4] (proportion BTZ:BZ 4:1), 0.024; in series [4] (proportion BTZ:BZ 5:0) it was 0.031. In addition, the “mice with negative qPCR in cardiac samples” value in series [5] (BTZ 184 mg/kg/day as printed) is recorded as “two of five”. The “qPCR on blood samples, parasite DNA amplification” value in series [5] is given as “negative (three of three animals)”. In addition, the “qPCR on blood samples, animals that amplified parasite DNA” value in series [5] was “only one animal”.

Turning to `O=C(Cn1ccnc1[N+](=O)[O-])NCc1ccccc1` [BZ, benznidazole], the EC50 was 1.73 ± 0.16 µM in series [1] (setting [6]) and 1.74 µM in series [1] (Trypanosoma cruzi, TULAHUEN, L929, 96 h, read-out: Activity against T. cruzi intracellular forms pEC50, Tulahuen strain in L929, 96 h (converted)). Moreover, the concentration for an effect of 90% (EC90) in series [1] (Trypanosoma cruzi, TULAHUEN, L929, 96 h) is 7.65 ± 1.69 µM. The cytotoxic concentration (CC50) at 96 h in series [2] is more than 400 µM. In addition, the cytotoxic concentration (CC50) at 168 h in series [2] is more than 200 µM. In addition, the EC50 at 168 h in series [2] (L929 fibroblast cells, printed in the 168 h column, read-out: Cytotoxicity on L929 cells pEC50 (converted)) is more than 200 µM. In addition, the “Washout: reduction in the number of intracellular forms” value in series [3] amounted to 98.6 ± 1.4%. Further, the “Washout: reduction in the number of released parasites” value in series [3] stood at 100 ± 0%. Besides, the “Drug concentration (EC50 in fixed-ratio series)” value stood at 1.445 in series [4] (proportion BTZ:BZ 0:5); 0.138 in series [4] (proportion BTZ:BZ 1:4); 0.219 in series [4] (proportion BTZ:BZ 2:3); 0.402 in series [4] (proportion BTZ:BZ 3:2); 0.738 in series [4] (proportion BTZ:BZ 4:1). The FICI was determined as 1 in series [4] (proportion BTZ:BZ 0:5); 0.10 in series [4] (proportion BTZ:BZ 1:4); 0.15 in series [4] (proportion BTZ:BZ 2:3); 0.28 in series [4] (proportion BTZ:BZ 3:2); 0.51 in series [4] (proportion BTZ:BZ 4:1); 0 in series [4] (proportion BTZ:BZ 5:0). The “negative qPCR in cardiac samples” value in series [5] (BZ 100 mg/kg/day) is recorded as 100%. In addition, the “qPCR on blood samples, parasite DNA amplification” value in series [5] is recorded as “parasite DNA was amplified in all animals”. In addition, in series [5], the “qPCR on blood samples, animals that amplified parasite DNA” value is recorded as “only one animal”.
